Assay results published in ChEMBL document CHEMBL4418487, “Max binders as myc modulators and uses thereof” (2017).
Values belong to the compound of their own block, whether it stands above or below them. Active and inactive are the calls of the source. The calls are words filed in the database; no cut-off is given here.

Key:
[1] = Cytotoxicity against human P493-6 cells with where Myc is in OFF- condition assessed as reduction in cell viability incubated for 3 days by CellTiter-Glo assay; type: cell-based
Astrocyte = test: Cytotoxicity against normal human astrocytes assessed as reduction in cell viability incubated for 4 days by CellTiter-Glo assay; type: cell-based; conditions: 96 h
[2] = Cytotoxicity against human P493-6 cells with where Myc is in ON- condition assessed as reduction in cell viability incubated for 3 days by CellTiter-Glo assay; type: functional, cell-based
CA46 = test: Cytotoxicity against human CA46 cells assessed as reduction in cell viability incubated for 3 days by CellTiter-Glo assay; type: functional, cell-based
ST486 = test: Cytotoxicity against human ST486 cells assessed as reduction in cell viability incubated for 3 days by CellTiter-Glo assay; type: functional, cell-based
Homo sapiens [3] = species on record: Homo sapiens; test: Cytotoxicity against human GBM4 cells assessed as reduction in cell viability incubated for 4 days by CellTiter-Glo assay; type: functional, cell-based
[4] = target: Protein max (Homo sapiens) (UniProt P61244); test: Binding affinity to Max in human P493-6 cells using Bio-MS2 by Western blotting analysis based pull down assay; type: cell-based
Chain of Protein max (Homo sapiens) (P61244 whole entry): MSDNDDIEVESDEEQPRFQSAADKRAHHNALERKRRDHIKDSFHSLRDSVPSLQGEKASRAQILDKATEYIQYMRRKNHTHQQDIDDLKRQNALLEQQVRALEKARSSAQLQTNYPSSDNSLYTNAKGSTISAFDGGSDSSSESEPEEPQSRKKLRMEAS

NCI-H1963 = test: Cytotoxicity against human NCI-H1963 cells assessed as reduction in cell viability incubated for 3 days by CellTiter-Glo assay; type: functional, cell-based
[5] = target: Myc proto-oncogene protein (Homo sapiens) (UniProt P01106); test: Binding affinity to MYC in human P493-6 cells using 2 mg protein by immunoblotting based pull down assay; type: cell-based
Chain of Myc proto-oncogene protein (Homo sapiens) (P01106 whole entry): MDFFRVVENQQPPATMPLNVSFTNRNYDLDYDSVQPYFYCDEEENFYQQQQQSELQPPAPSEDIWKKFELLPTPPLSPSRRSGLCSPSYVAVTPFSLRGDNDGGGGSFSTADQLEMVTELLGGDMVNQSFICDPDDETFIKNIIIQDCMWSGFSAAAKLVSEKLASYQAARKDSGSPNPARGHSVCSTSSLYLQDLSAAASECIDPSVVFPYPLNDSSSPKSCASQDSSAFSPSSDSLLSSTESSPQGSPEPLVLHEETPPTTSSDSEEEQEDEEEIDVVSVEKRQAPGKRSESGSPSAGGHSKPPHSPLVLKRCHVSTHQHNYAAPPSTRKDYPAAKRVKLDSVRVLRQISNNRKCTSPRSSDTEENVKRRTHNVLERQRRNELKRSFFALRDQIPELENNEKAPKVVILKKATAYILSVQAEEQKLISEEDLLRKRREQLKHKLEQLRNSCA

[6] = target: Protein max (Homo sapiens) (UniProt P61244); test: Binding affinity to Max in human P493-6 cells using 2 mg protein by immunoblotting based pull down assay; type: cell-based
[7] = target: Protein max (Homo sapiens) (UniProt P61244); test: Induction of Max homodimer stabilization in human P493-6 cells assessed as increase in Max homodimer binding to DNA by electrophoretic mobility shift assay; type: cell-based
Homo sapiens [8] = test: Antitumor activity against Luc-labeled and MYC-driven human T-ALL 4188 cells xenografted in immune-compromised NSG mouse assessed as reduction in tumor volume at 20 uM, iv measured during 2 to 12 days after tumor implantation; type: functional, organism-based
[9] = Drug level in plasma (unknown origin) at 0.2 to 10 uM by serial dilution-lowest detection limit test; type: ADME, cell-free
[10] = Toxicity in healthy mouse assessed as effect on body weight at 0.731 mg/kg, po dosed daily using cyclodextrin vehicle for 7 days measured on each day; type: organism-based; conditions: in vivo, 168 h
Homo sapiens [11] = test: Antitumor activity against Luc-labeled and MYC-driven human T-ALL 4188 cells xenografted in immune-compromised NSG mouse assessed as reduction in tumor volume at 10 mg/ml dosed in corn oil every other day during day 2 to 16 after tumor implantation; type: functional, organism-based
[12] = Drug level in mouse plasma at 20 uM, iv by LC/MS analysis; type: ADME, organism-based; conditions: in vivo
[13] = target: Myc proto-oncogene protein (Homo sapiens) (UniProt P01106); test: Binding affinity to c-Myc in human P493-6 cells at […] incubated for 30 mins by immunoprecipitation based assay; type: cell-based
[14] = Toxicity in healthy mouse assessed as effect on behavior at 0.364 mg/kg, po dosed daily using cyclodextrin vehicle for 7 days measured on each day; type: organism-based; conditions: in vivo, 168 h
[15] = Toxicity in healthy mouse assessed as effect on liver at 0.731 mg/kg, po dosed daily using cyclodextrin vehicle for 7 days by H and E staining histological analysis; type: organism-based; conditions: in vivo, 168 h
[16] = target: Protein max (Homo sapiens) (UniProt P61244); test: Binding affinity to Max in human P493-6 cells assessed as effect on Max interactome by measuring perturbation in Nacc2 level at […] incubated for 30 mins by immunoprecipitation based assay; type: cell-based
[17] = Retention time of the compound by LC/MS analysis; type: physicochemical
[18] = target: Protein max (Homo sapiens) (UniProt P61244); test: Binding affinity to Max in human P493-6 cells assessed as induction of perturbation in transcriptional programs after 45 mins; type: cell-based
[19] = target: Protein max (Homo sapiens) (UniProt P61244); test: Binding affinity to Max in human P493-6 cells assessed as decrease in Myc protein levels; type: cell-based
[20] = Renal toxicity in healthy mouse assessed as induction of kidney damage at 0.731 mg/kg, po dosed daily using cyclodextrin vehicle for 7 days by H and E staining histological analysis; type: organism-based; conditions: in vivo, 168 h
[21] = Drug level in mouse plasma at 20 uM, po by LC/MS analysis; type: ADME, organism-based; conditions: in vivo
Homo sapiens [22] = test: Antitumor activity against Luc-labeled and MYC-driven human T-ALL 4188 cells xenografted in immune-compromised NSG mouse assessed as reduction in tumor volume using tumor cells pre-treated with 20 uM compound for 24 hrs; type: functional
[23] = target: Protein max (Homo sapiens) (UniProt P61244); test: Binding affinity to Max in human P493-6 cells assessed as effect on Max interactome by measuring perturbation in Yaf2 level at […] incubated for 30 mins by immunoprecipitation based assay; type: cell-based
[24] = Toxicity in healthy mouse assessed as effect on liver at 0.364 mg/kg, po dosed daily using cyclodextrin vehicle for 7 days by H and E staining histological analysis; type: organism-based; conditions: in vivo, 168 h
[25] = Toxicity in healthy mouse assessed as effect on behavior at 0.731 mg/kg, po dosed daily using cyclodextrin vehicle for 7 days measured on each day; type: organism-based; conditions: in vivo, 168 h
[26] = target: Protein max (Homo sapiens) (UniProt P61244); test: Induction of recombinant human Max homodimer stabilization at 10 uM pre-incubated for 1 hr with protein and measured after 18 hrs
[27] = target: Protein max (Homo sapiens) (UniProt P61244); test: Binding affinity to Max in human P493-6 cells assessed as decrease in Myc protein levels at 10 uM in presence of 10 uM proteasome inhibitor MG132; type: cell-based
[28] = target: Protein max (Homo sapiens) (UniProt P61244); test: Binding affinity to Max in human P493-6 cells assessed as effect on Max interactome by measuring perturbation in Rcor1 level at […] incubated for 30 mins by immunoprecipitation based assay; type: cell-based
c-Myc/Max (Homo sapiens) = c-Myc/Max (Homo sapiens) (UniProt P01106+P61244); test: Inhibition of c-Myc/Max heterodimer interaction in human P493-6 cells by electrophoretic mobility shift assay; type: cell-based
[29] = target: Protein max (Homo sapiens) (UniProt P61244); test: Binding affinity to Max in human P493-6 cells at […] incubated for 30 mins by immunoprecipitation based assay; type: cell-based
[30] = Toxicity in healthy mouse assessed as effect on body weight at 0.364 mg/kg, po dosed daily using cyclodextrin vehicle for 7 days measured on each day; type: organism-based; conditions: in vivo, 168 h
[31] = target: Protein max (Homo sapiens) (UniProt P61244); test: Binding affinity to Max in human P493-6 cells assessed as effect on Max interactome by measuring perturbation in Atg16l1 level at […] incubated for 30 mins by immunoprecipitation based assay; type: cell-based
[32] = Renal toxicity in healthy mouse assessed as induction of kidney damage at 0.364 mg/kg, po dosed daily using cyclodextrin vehicle for 7 days by H and E staining histological analysis; type: organism-based; conditions: in vivo, 168 h
[33] = Drug level in mouse plasma at 100 to 200 uM, po dosed using cyclodextrin vehicle by LC/MS analysis; type: ADME, organism-based; conditions: in vivo
[34] = Hepatic toxicity in healthy mouse assessed as induction of liver damage at 0.731 mg/kg, po dosed daily using cyclodextrin vehicle for 7 days by H and E staining histological analysis; type: organism-based; conditions: in vivo, 168 h
[35] = target: Protein max (Homo sapiens) (UniProt P61244); test: Binding affinity to Max in human P493-6 cells assessed as decrease in Myc transcript levels by qPCR analysis; type: cell-based
[36] = target: Protein max (Homo sapiens) (UniProt P61244); test: Binding affinity to Max in human P493-6 cells assessed as effect on Max interactome by measuring perturbation in Myc level at […] incubated for 30 mins by immunoprecipitation based assay; type: cell-based
[37] = target: Protein max (Homo sapiens) (UniProt P61244); test: Binding affinity to Max in human P493-6 cells assessed as effect on Max interactome by measuring perturbation in Mxd4 level at […] incubated for 30 mins by immunoprecipitation based assay; type: cell-based
[38] = target: Protein max (Homo sapiens) (UniProt P61244); test: Binding affinity to Max in human P493-6 cells at 5 to 10 uM using AlexaFluor-tagged compound in presence of 20 uM soluble KI-MS2-008 by Western blotting analysis based target engagement assay; type: cell-based
[39] = target: Protein max (Homo sapiens) (UniProt P61244); test: Binding affinity to Max in human P493-6 cells at 5 to 10 uM using AlexaFluor-tagged compound by Western blotting analysis based target engagement assay; type: cell-based
[40] = target: Protein max (Homo sapiens) (UniProt P61244); test: Binding affinity to Max in human P493-6 cells using Biotin with streptavidin enrichment by Western blotting analysis based target engagement assay; type: cell-based

SMILES: O=C1NCc2ccccc2[C@@H]2OC(c3ccccc3)=N[C@]12Cc1ccccc1
- IC50 ([1]; Homo sapiens, P493-6, 72 h): > 50 µM

SMILES: O=C1N(CCS(=O)(=O)c2ccccc2)Cc2ccccc2[C@@H]2OC(c3ccc(OCCCO)cc3)=N[C@]12Cc1ccccc1 (racemic) [listing 1 of 2 here]
- Activity (Astrocyte): Non-Toxic
- IC50 [2]: 6.8 to 14.5 µM
- IC50 ([1]; Homo sapiens, P493-6, 72 h): 50 to 58.1 µM

SMILES: O=C1N(CCS(=O)(=O)c2ccccc2)Cc2ccccc2[C@@H]2OC(c3ccc(OCCCO)cc3)=N[C@]12Cc1ccccc1
- IC50 [1]: > 50 µM

SMILES: O=C(c1ccccc1)N1Cc2ccccc2[C@@H]2OC(c3ccccc3)=N[C@]2(Cc2ccccc2)C1=O
- IC50 ([2]; Homo sapiens, P493-6, 72 h): > 50 µM
- IC50 ([1]; Homo sapiens, P493-6, 72 h): > 50 µM

SMILES: CC(=O)N1Cc2ccccc2[C@@H]2OC(c3ccccc3)=N[C@]2(Cc2ccccc2)C1=O
- IC50 ([2]; Homo sapiens, P493-6, 72 h): 19.3 µM
- IC50 ([1]; Homo sapiens, P493-6, 72 h): > 50 µM

SMILES: C=CCN1Cc2ccccc2[C@@H]2OC(c3ccccc3)=N[C@]2(Cc2ccccc2)C1=O
- IC50 ([1]; Homo sapiens, P493-6, 72 h): > 50 µM

- Activity [4]: Active
SMILES: O=C1N(CCS(=O)(=O)c2ccccc2)Cc2ccccc2[C@@H]2OC(c3ccc(OCCCO)cc3)=N[C@]12Cc1ccccc1 (racemic) [listing 2 of 2 here]
- Activity (CA46): Active
- Activity (ST486): Active
- Activity (Homo sapiens [3]): Active
- Activity (NCI-H1963): Active

- Activity [5]: Active
- Activity [6]: Active
SMILES: NCCOCCOCCNC(=O)CN1Cc2ccccc2[C@@H]2OC(c3ccccc3)=N[C@]2(Cc2ccccc2)C1=O

SMILES: O=C(O)CN1Cc2ccccc2[C@@H]2OC(c3ccccc3)=N[C@]2(Cc2ccccc2)C1=O
- IC50 ([1]; Homo sapiens, P493-6, 72 h): > 50 µM

- Activity [7]: Dose-dependent effect
- Drug uptake [9]: Active
- Drug uptake [12]: Active
- Activity [13]: Active
- Activity [16]: Active
- Retention_time [17]: 9 min
- Activity [18]: Active
- Activity [19]: Dose-dependent effect
- Drug uptake [21]: Not Active
- Activity [23]: Active
- Activity [26]: Active
- Activity [27]: inactive
- Activity [28]: Active
- inhibition (c-Myc/Max (Homo sapiens)): inactive
- Activity [29]: Active
- Activity [31]: Active
- Drug uptake [33]: Active
- Activity [35]: Active
- Activity [36]: Active
- Activity [37]: Active
SMILES: O=C1N(CCS(=O)(=O)c2ccccc2)Cc2ccccc2[C@@H]2OC(c3ccccc3)=N[C@]12Cc1ccccc1
- Activity (Homo sapiens [8]): Active
- Activity [10]: Non-Toxic
- Activity (Homo sapiens [11]): Active
- Activity [14]: Non-Toxic
- Activity [15]: Non-Toxic
- IC50 ([1]; Homo sapiens, P493-6, 72 h): > 50 µM
- Activity [20]: Non-Toxic
- Activity (Homo sapiens [22]): Active
- Activity [24]: Non-Toxic
- Activity [25]: Non-Toxic
- Activity [30]: Non-Toxic
- Activity [32]: Non-Toxic
- Activity [34]: Non-Toxic

SMILES: CCOC(=O)CN1Cc2ccccc2[C@@H]2OC(c3ccccc3)=N[C@]2(Cc2ccccc2)C1=O
- IC50 ([1]; Homo sapiens, P493-6, 72 h): > 50 µM

SMILES: O=C1N(CCS(=O)(=O)c2ccccc2)Cc2cc(Cl)ccc2[C@@H]2OC(c3ccccc3)=N[C@]12Cc1ccccc1
- IC50 ([2]; Homo sapiens, P493-6, 72 h): 25.8 µM
- IC50 ([1]; Homo sapiens, P493-6, 72 h): > 50 µM

- Activity [38]: inactive
- Activity [39]: Active
- Activity [40]: Active
SMILES: CCN(CC(=O)NCCNC(=O)CN1Cc2ccccc2[C@@H]2OC(c3ccccc3)=N[C@]2(Cc2ccccc2)C1=O)C(=O)CCC1(C)N=N1
